Laboratory results from patent US7989466B2, “Methods to inhibit or augment an inflammatory response” (Cambridge Enterprise Limited, priority 1999, dated 2011).
Read-outs that look alike come from different tables or passages of the source. Marks after values point to notes of the source that are not given here. Positions of bridges follow the written chain, without caps; N, C: chain ends. No end group written: not given here. *: point of attachment. Biotin = O=C1N[C@H]2[C@H](CS[C@H]2CCCCC(=O)*)N1

What was measured:
[1] = tested on: MCP-1 induced THP-1 migration; experiment: THP-1 trans-well migration assay, MCP-1 as chemoattractant; type: cell-based, human
Procedure: (§1) To determine whether an agent inhibits a chemokine-induced activity, such as macrophage recruitment, varying amounts of the agent are mixed with cells in the presence of a known chemoattractant. For example, a range of known concentrations of an agent, e.g., a chemokine peptide, is incubated with a defined number (e.g., 10^4-10^6) of human THP-1 monocyte cells in individual wells of the top compartment of a trans-well plate. Chemokine (such as MCP-1, MIP1α, IL8 or SDF-1α), at a concentration known to cause significant migration of THP-1 cells in the trans-well migration assay, is placed in the lower compartment (FIG. 1). Cells are then incubated at 37° C. for a period sufficient to allow migration, e.g., 4 hours. After incubation, the cells are gently removed from the top of the filter with a pipette, 20 μl of 20 mM EDTA in simple PBS is added into each top well, and incubated for 20 minutes at 4° C. The filter is carefully flushed with media using a gentle flow, and removed. A standard curve consisting of a two-fold dilution series of THP-1 cells (in 29 μl) is prepared to accurately quantify the number of cells that have migrated. Migrated cells are stained with 3 μl of MTT stock dye solution which is added directly into each well (5 mg/ml in RPMI-1640 without phenol red, Sigma Chemical Co.) and incubated at 37° C. for 4 hours. The media is carefully aspirated from each well, and the converted dye is solubilized by 20 μl of DMSO. Absorbance of converted dye is measured at a wavelength of 595 nm using an ELISA plate reader. The number of migrated cells in each well is then determined by interpolation of the standard curve (see also Imai et al., J. Biol. Chem., 272, 15036 (1997)).
(§2) For this assay, THP-1 cells were maintained at a density of 4×10^5 cells per ml in RPMI-1640 supplemented with 10% fetal calf serum+20 μM 2-mercaptoethanol. Chemotaxis was induced in a 96-well disposable chemotaxis chamber fitted with a […] polycarbonate filter (PVP free, ChemoTX, Neuroprobe Inc., Cabin John). Twenty-nine μl of chemoattractant (recombinant human chemokine; 50 ng/ml, i.e., 5.9 nM) or control (100 ng/ml TGFβ) was added to the lower compartment of each well. The framed filter was aligned with the holes in the corner of the filter frame and placed over the wells. Five×10^4 THP-1 cells in 25 μl of RPMI-1640 were added to the upper compartment. Peptides were dissolved in Milli Q water and then serially diluted in culture medium. In most cases, the serially diluted peptides were added to the upper compartment of the chemotaxis chamber. The chamber was incubated at 37° C. in a humidified atmosphere of 5% CO2 for 4 hours.
(§3) After incubation, the cells were gently removed from the top of the filter with a pipette, 20 μl of 20 mM EDTA in PBS was added into each top well, and the mixture was incubated for 20 minutes at 4° C. The filter was then carefully flushed with media using a gentle flow, and removed. A standard curve was prepared to accurately quantify the number of THP-1 cells that had migrated. The curve was based on a two-fold dilution series of THP-1 cells (top standard 100,000 cells in 29 μl). Cells which had migrated, and in separate wells, the cells in the standards, were stained with 3 μl of MTT stock solution which was added directly into each well (5 mg/ml in RPMI 1640 without phenol red, Sigma Chemical Co.) and incubated at 37° C. for 4 hours. The media was carefully aspirated from each well, and the converted dye was solubilized by 20 μl of DMSO. Absorbance of converted dye was measured at a wavelength of 595 nm using an ELISA plate reader. The number of cells that had migrated in each well was determined by interpolation of the standard curve.

[2] = tested on: chemokine-induced THP-1 migration; experiment: THP-1 trans-well migration assay, panel of chemokines (MCP-1, MIP1α, IL-8, SDF1α); type: cell-based, human; settings: for effect on THP-1 migration induced by the chemokine panel, in words / Chemokine antagonist: MCP-1, MIP1α; for effect on THP-1 migration induced by the chemokine panel, in words: IL-8, SDF1α; for CC SPECIFICITY: average inhibitory ED50 versus SDF1 and IL8 divided by average inhibitory ED50 versus MCP-1 and MIP1α; for Chemokine antagonist: active against at least one of IL-8, SDF-1α
[3] = tested on: MIP1α induced THP-1 migration; experiment: THP-1 trans-well migration assay, MIP1α as chemoattractant; type: cell-based, human; settings: n.s. = no statistically significant inhibition (p > 0.05); read-out: ED50 versus MIP1α, inhibition of THP-1 migration
Procedure: as §1, §2, §3

[4] = tested on: SDF-1α induced THP-1 migration; experiment: THP-1 trans-well migration assay, SDF-1α as chemoattractant; type: cell-based, human; settings: n.s. = no statistically significant inhibition (p > 0.05); read-out: ED50 versus SDF-1α, inhibition of THP-1 migration
Procedure: as §1, §2, §3

[5] = tested on: IL8 induced THP-1 migration; experiment: THP-1 trans-well migration assay, IL-8 as chemoattractant; type: cell-based, human; settings: for EC50: n.s. = no statistically significant inhibition (p > 0.05), read-out: ED50 versus IL8, inhibition of THP-1 migration
Procedure: as §1, §2, §3

[6] = tested on: TGFβ1 induced THP-1 migration; experiment: THP-1 trans-well migration assay, TGFβ1 as non-chemokine control; type: cell-based, human; settings: n.s. = no statistically significant inhibition (p > 0.05)
Procedure: Any method suitable for counting cells can be used, for example, counting with a hemocytometer, incubation of the cells with MTT (see above), or FACS analysis. A negative control assay is also performed, using TGF-β or another non-chemokine chemoattractant (e.g., IL1β or TNFα). To assess whether the agent is cytotoxic, the same concentrations of agent are incubated with THP-1 cells. Agents which 1) are not cytotoxic at levels which inhibit migration, 2) are ineffective at inhibiting the negative control-induced migration, and 3) reduce or inhibit chemokine-induced THP-1 migration, are agents which fall within the scope of the invention.
Chemotaxis was induced in a 96-well disposable chemotaxis chamber fitted with a […] polycarbonate filter (PVP free, ChemoTX, Neuroprobe Inc., Cabin John). […] The framed filter was aligned with the holes in the corner of the filter frame and placed over the wells. […] Peptides were dissolved in Milli Q water and then serially diluted in culture medium. In most cases, the serially diluted peptides were added to the upper compartment of the chemotaxis chamber. The chamber was incubated at 37° C. in a humidified atmosphere of 5% CO2 for 4 hours.
After incubation, the cells were gently removed from the top of the filter with a pipette, 20 μl of 20 mM EDTA in PBS was added into each top well, and the mixture was incubated for 20 minutes at 4° C. The filter was then carefully flushed with media using a gentle flow, and removed. […] The curve was based on a two-fold dilution series of THP-1 cells (top standard 100,000 cells in 29 μl). […] The media was carefully aspirated from each well, and the converted dye was solubilized by 20 μl of DMSO.

[7] = tested on: chemokine receptors on THP-1 cells; experiment: Binding to chemokine receptors on THP-1 cells; design: species or system human
Procedure: In general, specific binding is calculated as the amount of labeled agent bound in the absence of cold competitor minus the amount of labeled agent bound in the presence of cold competitor. The amount of specific binding in the presence of varied amounts of cold competitor can be used to determine the association constant for the agent, as well as the number of binding sites on the cell for the agent, using, for example, Scatchard Analysis. The agent may be labeled by radiolabeling (e.g., iodination) or with a suitable biochemical tag (e.g., biotin) or by addition of a photoactivatable crosslinking group. Agents with an association constant lower than 100 μM (i.e., which bind more strongly than an agent with an association constant of 100 μM) and which have at least about 2,500, preferably at least about 10,000, and more preferably greater than 25,000, binding sites per cell for at least one cell type which expresses a chemokine receptor, fall under the scope of this invention. THP-1 cells have at least about 5,000 MCP-1 receptors/cell.
For example, monocytes are suspended in RPMI 1640 medium without bicarbonate containing 0.2% bovine serum albumin and 0.1% azide. Radiolabeled chemokine peptide is incubated with 1-2×10^6 cells, e.g., THP-1 cells, in the presence or absence of increasing concentrations of unlabeled chemokine (MCP-1, MCP-3, MCP-4, RANTES or MIP-1α) for 15 minutes at 37° C. in a 96-well plate in a final volume of 0.2 ml (e.g., PBS+0.5% FCS). After the incubation, 0.5 ml of ice-cold wash buffer (20 mM Tris, 0.5 M NaCl, pH 7.4) is added, and cells are collected onto a polyethyleneimine-treated Whatman GF/C filter using a Brandall cell harvester. Filters are washed with 4 ml of cold wash buffer, and the radioactivity bound to the filters is counted in a γ-counter.
For Scatchard analysis, the absorbance readings at 450 nm were calibrated, by reference to a standard curve in which known amounts of labeled peptide were coupled to derivatized sepharose beads (activated thiol-sepharose 4B; Sigma T8512) via the cysteine residue in each peptide. Briefly, known amounts (1 fmol to 1 pmol) of biotin-labeled peptide were incubated with 1 mg of activated thiol-sepharose beads in 100 μl of PBS at 37° C. for 1 hour. Free activated thiols were then blocked by addition of cysteine to a final concentration of 10 mM. The peptide-conjugated beads were then washed 5 times in PBS and treated exactly as for the cells described above. The absorbance at 450 nm obtained when a known amount of peptide was coupled to the beads was used to construct a standard curve which was used to convert the absorbance readings obtained with cells into number of molecules of labeled peptide which had bound.

[8] = Homo sapiens, THP-1, agent with the cells in the upper compartment, n.s. = no statistically significant inhibition (p > 0.05), read-out: ED50 versus MCP-1, inhibition of THP-1 migration
[9] = average inhibitory ED50 for inhibition of THP-1 migration induced by each of the chemokines, read-out: AVERAGE ED50
[10] = agent with the cells in the upper compartment, n.s. = no statistically significant inhibition (p > 0.05), read-out: ED50 versus MCP-1, inhibition of THP-1 migration

CCC1(c2ccccc2)CCC(=O)NC1=O (centres unmarked) [Glutethimide, reference compound]
EC50 ([1]; Homo sapiens, THP-1, read-out: ED50 versus MCP-1, inhibition of THP-1 migration): 50 µM

Cc1cc(C(C)(C)C)c(O)c(C)c1CC1=NCCN1 [Oxymetazoline, reference compound]
EC50 [1, 8]: 75 µM

O=C1NC(=O)C(c2ccccc2)(c2ccccc2)N1 [Phenytoin, reference compound]
EC50 [1, 8]: 10 µM

COC(=O)[C@@H]1[C@H]2C[C@H]3c4[nH]c5ccccc5c4CCN3C[C@@H]2CC[C@@H]1O [Yohimbine, reference compound]
EC50 ([1]; Homo sapiens, THP-1, read-out: ED50 versus MCP-1 induced chemotaxis of THP-1): 0.03 µM

COC(=O)[C@H]1[C@H]2C[C@H]3c4[nH]c5ccccc5c4CCN3C[C@H]2CC[C@@H]1O [α-Yohimbine, reference compound]
EC50 ([1]; read-out: ED50 versus MCP-1 induced chemotaxis of THP-1): 0.5 µM

-CQVWKQKPDAC-- (disulfide 1-11; not fully specified (some residues, C-terminus); printed as -CQVWKQKPDAC--; also: CRD: cyclic reverse-D derivative, D-residues shown in italics, not given here) [CRD-Cys13pep3[3-12]]
EC50 [2, 9]: 0.8 µM

APG [reference compound]
effect on THP-1 migration induced by the chemokine panel, in words [2]: None of these significantly inhibited migration

CADPKQKWVQ [Peptide 3[3-12]]
EC50 [3]: 7 µM | EC50 [4]: 9 µM | EC50 [1, 10]: 8 µM | EC50 [5]: 9 µM | ED50 versus TGFβ1, inhibition of THP-1 migration [6]: n.s.

CLDPKQKWIQC [unlabeled peptide]
EC50 [1, 10]: ~9 µM

EICADP [Peptide 3[1-6]]
EC50 [3]: 25 µM | EC50 [4]: 19 µM | EC50 [1, 10]: 33 µM | EC50 [5]: 17 µM | EC50 ([2]; THP-1 migration, read-out: ED50 for inhibiting the CC chemokines): ~30 µM | EC50 [2, 9]: 24 µM | CC SPECIFICITY [2]: 0.7 | ED50 versus TGFβ1, inhibition of THP-1 migration [6]: n.s.

EICADPKQKWIQ [Ile11peptide 3]
EC50 [3]: 4 µM | EC50 [4]: 7 µM | EC50 [1, 10]: 6 µM | EC50 [5]: 2 µM | selectivity of IL-8 over other chemokines [2]: about 3 fold | EC50 [2, 9]: 5 µM | CC SPECIFICITY [2]: 0.9 | ED50 versus TGFβ1, inhibition of THP-1 migration [6]: n.s.

EICADPSEEWVQ [Ser7Glu8Glu9pep3]
EC50 [3]: 2 µM | EC50 [4]: 5 µM | EC50 [1, 10]: 7 µM | EC50 [5]: 9 µM | selectivity ratio for MIP1α versus all other chemokines [2]: about 3 fold | EC50 [2, 9]: 6 µM | ED50 versus TGFβ1, inhibition of THP-1 migration [6]: n.s.

ELRVIESGPHCANTEI [Pep2[IL8]]
AVERAGE ED50, peptide 2 family: estimated ka for binding to THP-1 cells [7]: 1-10^e μM

GGR [reference compound]
effect on THP-1 migration induced by the chemokine panel, in words [2]: None of these significantly inhibited migration

KAK
Chemokine antagonist [2]: +

KEN
percentage inhibition of migration induced by MCP-1 ([1]; tripeptide at 100 μM, mean ± range of two experiments, dash = no statistically significant reduction in migration): 21 ± 2^ % | percentage inhibition of migration induced by IL-8 ([5]; tripeptide at 100 μM, mean ± range, dash = no statistically significant reduction in migration): 70 ± 4% | CC SPECIFICITY [2]: <0.1 | EC50 ([2]; footnote f, KQK MCP-1, SEE MIP1α, KLK SDF1, KEN IL8, read-out: ED50 of a tripeptide against the one chemokine it is highly specific for): 0.1 to 10 µM

KNK
Chemokine antagonist [2]: +++

RGD [reference compound]
effect on THP-1 migration induced by the chemokine panel, in words [2]: None of these significantly inhibited migration

TTT [reference compound]
effect on THP-1 migration induced by the chemokine panel, in words [2]: None of these significantly inhibited migration

WGQ
EC50 [1, 10]: ~1.75 µM

WIQ
EC50 [2, 9]: 2 µM | CC SPECIFICITY [2]: 1.0

n′-CLDPKQKWIQC-c′ (Biotin-CLDPKQKWIQC; cysteine pairing not given here) [labeled peptide, N-terminal biotin conjugate]
EC50 [1, 10]: ~4 µM
